Assay results from patent publication US5789404A, “3-substituted 1-arylindole compounds” (H. Lundbeck A/S, priority 1993, dated 1998).
Structures can show the parent of a compound that is named as a salt. Where two headings read alike, the source gives them in different places. Each block holds one molecule with its values, some of them ahead of it.

Legend:
[1] = in vivo; cited from earlier work
[2] = in vivo; cited from earlier work; remark: listed apart in the source
[3] = in vivo; cited from earlier work; remark: listed apart in the source
[4] = in vivo; cited from earlier work; remark: listed apart in the source
[5] = in vivo; cited from earlier work; remark: listed apart in the source
[6] = target: T1, 5-HT2 receptors (Rattus norvegicus, UniProt P14842); experiment: Inhibition of ^3 H-Ketanserin Binding to 5-HT2 Receptors in Rat Cortex in vitro
T1 construct: 5-HT2 Receptors in Rat Cortex in vitro; from tissue; host or cells: rat cortex membranes
T1 sequence (P14842 whole entry): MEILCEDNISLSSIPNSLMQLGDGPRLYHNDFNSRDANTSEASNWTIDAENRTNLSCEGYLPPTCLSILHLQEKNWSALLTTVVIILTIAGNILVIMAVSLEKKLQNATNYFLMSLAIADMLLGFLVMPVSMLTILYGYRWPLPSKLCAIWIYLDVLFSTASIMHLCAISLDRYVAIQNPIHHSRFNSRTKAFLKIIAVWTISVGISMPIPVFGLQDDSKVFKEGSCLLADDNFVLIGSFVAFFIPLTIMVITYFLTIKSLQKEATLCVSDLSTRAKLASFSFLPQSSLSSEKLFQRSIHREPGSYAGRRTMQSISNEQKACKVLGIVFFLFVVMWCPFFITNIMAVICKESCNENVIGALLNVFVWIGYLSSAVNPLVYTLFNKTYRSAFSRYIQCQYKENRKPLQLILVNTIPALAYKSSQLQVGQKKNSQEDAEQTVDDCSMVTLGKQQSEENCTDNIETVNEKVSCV
Protocol: Inhibition of ^3 H-Ketanserin Binding to 5-HT2 Receptors in Rat Cortex in vitro
By this method the inhibition by drugs of the binding of ^3 H-Ketanserin (0,5 nM) to 5-HT2 receptors in membranes from rat is determined in vitro. The method is described in Hyttel, Pharmacol. & Toxicol.

[7] = target: dopamine D2 receptors (Rattus norvegicus, UniProt P61169); experiment: biochemical; type: binding; settings: read-out: Dopamin D2 binding ^3 H spiroperidol, IC50
dopamine D2 receptors, sequence (P61169 whole entry): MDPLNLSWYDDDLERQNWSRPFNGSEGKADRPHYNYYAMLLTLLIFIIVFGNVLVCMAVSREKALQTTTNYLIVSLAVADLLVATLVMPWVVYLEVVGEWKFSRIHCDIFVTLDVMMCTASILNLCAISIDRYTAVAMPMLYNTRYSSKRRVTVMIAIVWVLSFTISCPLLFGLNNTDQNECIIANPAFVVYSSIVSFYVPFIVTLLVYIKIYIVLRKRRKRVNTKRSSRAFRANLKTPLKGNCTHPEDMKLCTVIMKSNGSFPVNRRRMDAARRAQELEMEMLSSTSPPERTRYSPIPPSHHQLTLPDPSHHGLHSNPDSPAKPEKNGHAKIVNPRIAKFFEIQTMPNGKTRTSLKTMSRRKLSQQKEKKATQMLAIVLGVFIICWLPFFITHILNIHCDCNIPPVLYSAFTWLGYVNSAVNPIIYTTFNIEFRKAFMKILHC
Protocol: Inhibition of ^3 H-Spiroperidol Binding to Dopamine D2 Receptors in Rat Corpus Striatum in vitro
By this method the inhibition by drugs of the binding of ^3 H-spiroperidol (0.5 nM) to dopamine D2 receptors in membranes from rat corpus striatum is determined in vitro.

[8] = ^3 H-Ketanserin 0,5 nM, rat cortex membranes, read-out: 5-HT2 binding ^3 H ketanserin, IC50
[9] = ^3 H-spiroperidol 0.5 nM, rat corpus striatum membranes

SMILES: Cc1nc2sccn2c(=O)c1CCN1CCC(=C(c2ccc(F)cc2)c2ccc(F)cc2)CC1 [ritanserin]
- antidepressant effect / depressive symptoms of schizophrenia [1]: shown to be an antidepressant and to improve depressive symptoms of schizophrenia
- abuse of alcohol and drugs [2]: reduce abuse of alcohol and drugs
- effects in an animal test indicative of anxiolytic drug activity [3]: exert effects in an animal test indicative of anxiolytic drug activity
- neuroleptic-induced parkinsonism [4]: relieve neuroleptic-induced parkinsonism
- quality of sleep [5]: improve the quality of sleep

SMILES: CN(C)CCOc1c(CO)n(-c2ccc(F)cc2)c2ccc(Cl)cc12 [Compound 9a, N,N-Dimethyl-2-[5-chloro-1-(4-fluorophenyl)-2-hydroxymethyl-3-1H-indolyloxy]ethylamine Hydrochloride]
- IC50 [6]: 38 nM
- IC50 [7]: 430 nM

SMILES: O=C1NCCN1CCN1CCC[C@@H]1COc1cn(-c2ccc(F)cc2)c2ccc(Cl)cc12 [Compound 8a, (R)-1-[2-[2-[5-Chloro-1-(4-fluorophenyl)-3-1H-indolyloxymethyl]-1-pyrrolidinyl]ethyl]-2-imidazolidinone Oxalate]
- IC50 [6, 8]: 49 nM
- IC50 [7]: 8.1 nM

SMILES: O=C1NCCN1CCC1CCN(CCOc2cn(-c3ccc(F)cc3)c3ccc(Cl)cc23)CC1 [Compound 4k, 1-[2-[1-[2-[5-Chloro-1-(4-fluorophenyl)-3-1H-indolyloxy]ethyl]-4-piperidinyl]ethyl]-2-imidazolidinone]
- IC50 [6, 8]: 21 nM
- IC50 [7, 9]: 2.6 nM

SMILES: Fc1ccc(-n2cc(CCCN3CCOCC3)c3cc(Cl)ccc32)cc1 [Compound 3c, 5-Chloro-1-(4-fluorophenyl)-3-[3-(4-morpholinyl)propyl]-1H-indole maleate]
- IC50 [6, 8]: 310 nM
- IC50 [7, 9]: 26 nM

SMILES: C[C@@H](COc1cn(-c2ccc(F)cc2)c2ccc(Cl)cc12)N(C)C [Compound 6a, (S)-N, N-Dimethyl-2-[5-chloro-1-(4-fluorophenyl) -3-1H-indolyloxy]-1-methylethylamine Oxalate]
- IC50 [6, 8]: 7.4 nM
- IC50 [7]: 5.5 nM

SMILES: C[C@H](COc1cn(-c2ccc(F)cc2)c2ccc(Cl)cc12)N(C)C [Compound 6b, (R)-N,N-Dimethyl-2-[5-chloro-1-(4-fluorophenyl)-3-1H-indolyloxy]-1-methylethylamine oxalate]
- IC50 [6, 8]: 21 nM
- IC50 [7]: 37 nM

SMILES: CN(C)CCOc1cn(-c2ccc(F)cc2)c2ccc(C#N)cc12 [Compound 17a, N,N-Dimethyl-2-[5-cyano-1-(4-fluorophenyl)-1H-indol-3-yloxy]ethylamine, Hydrochloride]
- IC50 [6, 8]: 21 nM
- IC50 [7]: 0.98 nM

SMILES: CNCc1cn(-c2ccc(F)cc2)c2ccc(Cl)cc12 [Compound 13b, N-methyl-[5-chloro-1-(4-fluorophenyl)-3-1H-indolylmethyl]amine hydrochloride]
- IC50 [6, 8]: 21 nM
- IC50 [7]: 33 nM

SMILES: CNC(=O)C1CCN(CCOc2cn(-c3ccc(F)cc3)c3ccc(Cl)cc23)CC1 [Compound 4n, N-methyl-1-[2-[5-chloro-1-(4-fluorophenyl)-3-1H-indolyloxy]ethyl]4-piperidinecarboxamide]
- IC50 [6, 8]: 28 nM
- IC50 [7, 9]: 4.7 nM

- IC50 [6, 8]: 220 nM
- IC50 [7, 9]: 190 nM
SMILES: C#CCN(CCOc1cn(-c2ccc(F)cc2)c2ccc(Cl)cc12)CCN1CCNC1=O [Compound 4d, 1-[2-[[2-[5-Chloro-1-(4-fluorophenyl)-3-1H-indolyloxy]ethyl](3-propynyl)amino]ethyl]-2-imidazolidinone oxalate]
